One may read the inhibition as the relative decrease from the control value, in per cent.

Here are results for 20 compounds from patent publication US10744136B2, “Sulfonamide derivatives as JAK inhibitors” (Avista Pharma Solutions, Inc., priority 2018, dated 2020).

The target in this assay is T1, JAK1 (Homo sapiens, UniProt P23458).
T1 construct: purchased Thermo Fisher Scientific
Nature of the assay: Z'-LYTE JAK1 kinase screen (Thermo Fisher Scientific). The format is biochemical. Particulars: 1% DMSO, ATP at Km apparent; for % Inhibition 10 nM / inhibition at 0.01 µM: test compound 10 nM; for % Inhibition 10 nM: 0.01 µM; for % Inhibition 100 nM / inhibition at 0.1 µM: test compound 100 nM; for % Inhibition 100 nM: 0.1 µM; for % Inhibition 1000 nm: test compound 1000 nm (so in the source). The protocol:
The example compounds were screened for Jak1 activity at Thermo Fisher Scientific, using their Z′-Lyte™ protocol, as described below. Selectivity screening against other kinases can be performed following similar procedures. Z′-LYTE Assay Conditions: The Test Compounds are screened in 1% DMSO (final) in the well. Three screening concentrations (10, 100, and 1000 nM) of test compounds were used. Peptide/Kinase Mixtures: All Peptide/Kinase Mixtures are diluted to a 2× working concentration in the appropriate Kinase Buffer (For JAK1, the 2×JAK1/Tyr 06 mixture is prepared in 50 mM HEPES pH 6.5, 0.01% BRIJ-35, 10 mM MgCl2, 1 mM EGTA, 0.02% NaN3. The final 10 μL Kinase Reaction consists of 21.2-91.5 ng JAK1 and 2 μM Tyr 06 in 50 mM HEPES pH 7.0, 0.01% BRIJ-35, 10 mM MgCl2, 1 mM EGTA, 0.01% NaN3. After the 1 hour Kinase Reaction incubation, 5 μL of a 1:128 dilution of Development Reagent A is added). ATP Solution: All ATP Solutions are diluted to a 4× working concentration in Kinase Buffer (50 mM HEPES pH 7.5, 0.01% BRIJ-35, 10 mM MgCl2, 1 mM EGTA). ATP: Km apparent is previously determined using a Z′-LYTE assay. 10× Novel PKC Lipid Mix: 2 mg/ml Phosphatidyl Serine, 0.2 mg/ml DAG in 20 mM HEPES, pH 7.4, 0.3% CHAPS. For 5 mL 10× Novel PKC Lipid Mix: • 1. Add 10 mgs Phosphatidyl Serine (Avanti Polar Lipids Part #8400032C or 840039C) and 1 mg DAG (Avanti Polar Lipids Part #800811C) to a glass tube. • 2. Remove the chloroform from lipid mixture by evaporating to a clear, thin film under a stream of nitrogen. Continuous rotation of the tube, at an angle to ensure maximum surface area of the lipid solution, will promote the thinnest film. • 3. Add 5 mLs resuspension buffer, 20 mM HEPES, 0.3% CHAPS, pH 7.4, to the dried lipid mix • 4. Heat gently to 50-60° C. for 1-2 minutes and vortex in short intervals until the lipids are dissolved to a clear or slightly hazy solution. The lipids are typically in solution after 2-3 heat/vortex cycles. • 5. Cool to room temperature, aliquot into single use volumes and store at −20° C. Assay Protocol Bar-coded Corning, low volume NBS, black 384-well plate (Corning Cat. #4514) • 1. 100 nL—100× Test Compound in 100% DMSO • 2. 2.4 μL—Kinase buffer • 3. 5 μL—2× Peptide/Kinase Mixture • 4. 2.5 μL—4×ATP Solution • 5. 30-second plate shake • 6. 60-minute Kinase Reaction incubation at room temperature • 7. 5 μL—Development Reagent Solution • 8. 30-second plate shake • 9. 60-minute Development Reaction incubation at room temperature • 10. Read on fluorescence plate reader and analyze the data.

T1 sequence (P23458 whole entry): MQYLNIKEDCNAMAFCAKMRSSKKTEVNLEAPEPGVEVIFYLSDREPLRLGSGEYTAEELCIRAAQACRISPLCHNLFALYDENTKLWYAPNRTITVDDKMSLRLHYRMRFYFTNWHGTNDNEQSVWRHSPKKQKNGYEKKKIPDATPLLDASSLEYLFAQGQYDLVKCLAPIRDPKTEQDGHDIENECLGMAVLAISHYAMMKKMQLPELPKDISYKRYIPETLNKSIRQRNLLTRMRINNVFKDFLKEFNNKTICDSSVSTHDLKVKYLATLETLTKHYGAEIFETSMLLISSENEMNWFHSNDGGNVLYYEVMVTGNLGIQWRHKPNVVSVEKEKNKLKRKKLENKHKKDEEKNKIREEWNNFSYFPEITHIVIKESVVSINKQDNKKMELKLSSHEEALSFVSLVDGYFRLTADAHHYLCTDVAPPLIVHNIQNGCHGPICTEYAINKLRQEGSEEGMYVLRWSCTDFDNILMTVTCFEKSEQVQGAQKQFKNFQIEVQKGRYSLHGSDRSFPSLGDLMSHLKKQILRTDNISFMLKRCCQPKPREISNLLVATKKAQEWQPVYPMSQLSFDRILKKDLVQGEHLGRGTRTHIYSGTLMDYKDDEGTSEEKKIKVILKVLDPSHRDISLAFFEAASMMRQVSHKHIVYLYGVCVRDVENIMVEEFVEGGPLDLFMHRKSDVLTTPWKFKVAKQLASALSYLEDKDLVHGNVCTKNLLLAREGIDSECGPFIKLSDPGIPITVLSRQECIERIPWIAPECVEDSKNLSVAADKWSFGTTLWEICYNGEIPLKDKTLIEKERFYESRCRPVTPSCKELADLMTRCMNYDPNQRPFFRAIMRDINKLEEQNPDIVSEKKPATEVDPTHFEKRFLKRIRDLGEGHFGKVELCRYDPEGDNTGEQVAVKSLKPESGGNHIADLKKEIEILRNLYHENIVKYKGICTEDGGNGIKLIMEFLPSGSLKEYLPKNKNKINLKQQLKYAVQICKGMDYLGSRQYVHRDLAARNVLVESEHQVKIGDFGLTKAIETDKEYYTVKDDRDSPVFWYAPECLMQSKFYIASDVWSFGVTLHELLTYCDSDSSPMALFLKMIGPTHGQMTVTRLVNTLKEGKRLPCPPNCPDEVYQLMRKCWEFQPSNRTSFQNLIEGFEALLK

As for `CNS(=O)(=O)C1CC2(CC(N(C)c3ncnc4[nH]ccc34)C2)C1` (single isomer, unassigned; enantiomer a) [Compound 26, (Enantiomer A)-N-methyl-6-[methyl(7H-pyrrolo[2,3-d]pyrimidin-4-yl)amino]spiro[3.3]heptane-2-sulfonamide], the “% Inhibition 10 nM” value stood at 77%, the “% Inhibition 100 nM” value worked out at 96% and the “% Inhibition 1000 nm” value was 98%.
Consider `CNS(=O)(=O)C1CC2(CC(N(C)c3ncnc4[nH]ccc34)C2)C1` (single isomer, unassigned; enantiomer b) [Compound 27, (Enantiomer B)-N-methyl-6-[methyl(7H-pyrrolo[2,3-d]pyrimidin-4-yl)amino]spiro[3.3]heptane-2-sulfonamide], for which the “% Inhibition 10 nM” value amounted to 12%, the “% Inhibition 100 nM” value was 52% and the “% Inhibition 1000 nm” value is on record as 89%.
`CNS(=O)(=O)C1CC2(CC(N(C)c3ncnc4[nH]ccc34)C2)C1` (stereo not drawn) [Compound 1, N-methyl-6-[methyl(7H-pyrrolo[2,3-d]pyrimidin-4-yl)amino]spiro[3.3]heptane-2-sulfonamide]: the inhibition at 0.01 µM came out at 71%, the inhibition at 0.1 µM was 92% and the “% Inhibition 1000 nm” value was 96%.
Take `CCNS(=O)(=O)C1CC2(CC(N(C)c3ncnc4[nH]ccc34)C2)C1` (stereo not drawn) [Compound 2, N-ethyl-6-[methyl(7H-pyrrolo[2,3-d]pyrimidin-4-yl)amino]spiro[3.3]heptane-2-sulfonamide]: the inhibition at 0.01 µM worked out at 52%, the inhibition at 0.1 µM is 90% and the “% Inhibition 1000 nm” value is reported as 98%.
On the same counts, the results for `CCCNS(=O)(=O)C1CC2(CC(N(C)c3ncnc4[nH]ccc34)C2)C1` (stereo not drawn) [Compound 3, 6-[methyl(7H-pyrrolo[2,3-d]pyrimidin-4-yl)amino]-N-propyl-spiro[3.3]heptane-2-sulfonamide] are 57%, 92% and 98%.
With `CC(C)NS(=O)(=O)C1CC2(CC(N(C)c3ncnc4[nH]ccc34)C2)C1` (stereo not drawn) [Compound 4, N-isopropyl-6-[methyl(7H-pyrrolo[2,3-d]pyrimidin-4-yl)amino]spiro[3.3]heptane-2-sulfonamide], the inhibition at 0.01 µM turned out to be 23%, the inhibition at 0.1 µM worked out at 75% and the “% Inhibition 1000 nm” value came out at 95%.
The corresponding values for `CN(c1ncnc2[nH]ccc12)C1CC2(C1)CC(S(=O)(=O)NC1CC1)C2` (stereo not drawn) [Compound 5, N-cyclopropyl-6-[methyl(7H-pyrrolo[2,3-d]pyrimidin-4-yl)amino]spiro[3.3]heptane-2-sulfonamide] are 61%, 94% and 99%.
As to `CN(c1ncnc2[nH]ccc12)C1CC2(C1)CC(S(=O)(=O)NCC(F)(F)F)C2` (stereo not drawn) [Compound 6, 6-[methyl(7H-pyrrolo[2,3-d]pyrimidin-4-yl)amino]-N-(2,2,2-trifluoroethyl)spiro[3.3]heptane-2-sulfonamide], the inhibition at 0.01 µM stood at 63%, the inhibition at 0.1 µM worked out at 93% and the “% Inhibition 1000 nm” value worked out at 96%.
`CC(C)CNS(=O)(=O)C1CC2(CC(N(C)c3ncnc4[nH]ccc34)C2)C1` (stereo not drawn) [Compound 7, N-isobutyl-6-[methyl(7H-pyrrolo[2,3-d]pyrimidin-4-yl)amino]spiro[3.3]heptane-2-sulfonamide]: the inhibition at 0.01 µM came out at 42%, the inhibition at 0.1 µM stood at 88% and the “% Inhibition 1000 nm” value came to 97%.
On to `CN(c1ncnc2[nH]ccc12)C1CC2(C1)CC(S(=O)(=O)NC(C)(C)C)C2` (stereo not drawn) [Compound 8, N-tert-butyl-6-[methyl(7H-pyrrolo[2,3-d]pyrimidin-4-yl)amino]spiro[3.3]heptane-2-sulfonamide], for which the inhibition at 0.01 µM came to 37%, the inhibition at 0.1 µM was 82% and the “% Inhibition 1000 nm” value came out at 94%.
On to `CN(c1ncnc2[nH]ccc12)C1CC2(C1)CC(S(=O)(=O)NC1CCC1)C2` (stereo not drawn) [Compound 9, N-cyclobutyl-6-[methyl(7H-pyrrolo[2,3-d]pyrimidin-4-yl)amino]spiro[3.3]heptane-2-sulfonamide], for which the inhibition at 0.01 µM came out at 64%, the inhibition at 0.1 µM amounted to 93% and the “% Inhibition 1000 nm” value stood at 99%.
For `CN(c1ncnc2[nH]ccc12)C1CC2(C1)CC(S(=O)(=O)NC1CCCC1)C2` (stereo not drawn) [Compound 10, N-cyclopentyl-6-[methyl(7H-pyrrolo[2,3-d]pyrimidin-4-yl)amino]spiro[3.3]heptane-2-sulfonamide], the inhibition at 0.01 µM is 52%, the inhibition at 0.1 µM stood at 84% and the “% Inhibition 1000 nm” value was 97%.
The corresponding values for `CN(c1ncnc2[nH]ccc12)C1CC2(CC(NS(=O)(=O)c3ccccc3)C2)C1` (stereo not drawn) [Compound 11, N-[2-[methyl(7H-pyrrolo[2,3-d]pyrimidin-4-yl)amino]spiro[3.3]heptan-6-yl]benzenesulfonamide] are 11%, 81% and 95%.
Regarding `CN(c1ncnc2[nH]ccc12)C1CC2(CC(NS(=O)(=O)c3ccccc3Cl)C2)C1` (stereo not drawn) [Compound 12, 2-chloro-N-[2-[methyl(7H-pyrrolo[2,3-d]pyrimidin-4-yl)amino]spiro[3.3]heptan-6-yl]benzenesulfonamide], the inhibition at 0.01 µM is 15%, the inhibition at 0.1 µM was found to be 60% and the “% Inhibition 1000 nm” value is given as 90%.
With `CN(c1ncnc2[nH]ccc12)C1CC2(CC(NS(=O)(=O)c3ccc(Cl)cc3)C2)C1` (stereo not drawn) [Compound 13, 4-chloro-N-[2-[methyl(7H-pyrrolo[2,3-d]pyrimidin-4-yl)amino]spiro[3.3]heptan-6-yl]benzenesulfonamide], the inhibition at 0.01 µM was found to be 27%, the inhibition at 0.1 µM is 77% and the “% Inhibition 1000 nm” value worked out at 95%.
In the case of `CN(c1ncnc2[nH]ccc12)C1CC2(CC(NS(=O)(=O)c3ccc(C(F)(F)F)cc3)C2)C1` (stereo not drawn) [Compound 14, N-[2-[methyl(7H-pyrrolo[2,3-d]pyrimidin-4-yl)amino]spiro[3.3]heptan-6-yl]-4-(trifluoromethyl)benzenesulfonamide], the inhibition at 0.01 µM is 1%, the inhibition at 0.1 µM amounted to 56% and the “% Inhibition 1000 nm” value was determined as 92%.
As for `CN(c1ncnc2[nH]ccc12)C1CC2(CC(NS(C)(=O)=O)C2)C1` (stereo not drawn) [Compound 15, N-[2-[methyl(7H-pyrrolo[2,3-d]pyrimidin-4-yl)amino]spiro[3.3]heptan-6-yl]methanesulfonamide], the inhibition at 0.01 µM came out at 31%, the inhibition at 0.1 µM is 78% and the “% Inhibition 1000 nm” value stood at 95%.
Take `CCS(=O)(=O)NC1CC2(C1)CC(N(C)c1ncnc3[nH]ccc13)C2` (stereo not drawn) [Compound 16, N-[2-[methyl(7H-pyrrolo[2,3-d]pyrimidin-4-yl)amino]spiro[3.3]heptan-6-yl]ethanesulfonamide]: the inhibition at 0.01 µM came to 28%, the inhibition at 0.1 µM was found to be 76% and the “% Inhibition 1000 nm” value stood at 96%.
As to `CCCS(=O)(=O)NC1CC2(C1)CC(N(C)c1ncnc3[nH]ccc13)C2` (stereo not drawn) [Compound 17, N-[2-[methyl(7H-pyrrolo[2,3-d]pyrimidin-4-yl)amino]spiro[3.3]heptan-6-yl]propane-1-sulfonamide], the inhibition at 0.01 µM stood at 38%, the inhibition at 0.1 µM was found to be 83% and the “% Inhibition 1000 nm” value came out at 95%.
For the compound `CC(C)S(=O)(=O)NC1CC2(C1)CC(N(C)c1ncnc3[nH]ccc13)C2` (stereo not drawn) [Compound 18, N-[2-[methyl(7H-pyrrolo[2,3-d]pyrimidin-4-yl)amino]spiro[3.3]heptan-6-yl]propane-2-sulfonamide], the inhibition at 0.01 µM is 23%, the inhibition at 0.1 µM amounted to 71% and the “% Inhibition 1000 nm” value stood at 94%.
